# pEC50: −log10 of the molar value.
# Target: Nicotinamide phosphoribosyltransferase (Homo sapiens, UniProt P43490)
# Assay: NAMPT Enzyme Activating Effect (In Vitro Cell-Free Enzyme Assay
# Nicotinamide phosphoribosyltransferase, sequence (P43490 whole entry): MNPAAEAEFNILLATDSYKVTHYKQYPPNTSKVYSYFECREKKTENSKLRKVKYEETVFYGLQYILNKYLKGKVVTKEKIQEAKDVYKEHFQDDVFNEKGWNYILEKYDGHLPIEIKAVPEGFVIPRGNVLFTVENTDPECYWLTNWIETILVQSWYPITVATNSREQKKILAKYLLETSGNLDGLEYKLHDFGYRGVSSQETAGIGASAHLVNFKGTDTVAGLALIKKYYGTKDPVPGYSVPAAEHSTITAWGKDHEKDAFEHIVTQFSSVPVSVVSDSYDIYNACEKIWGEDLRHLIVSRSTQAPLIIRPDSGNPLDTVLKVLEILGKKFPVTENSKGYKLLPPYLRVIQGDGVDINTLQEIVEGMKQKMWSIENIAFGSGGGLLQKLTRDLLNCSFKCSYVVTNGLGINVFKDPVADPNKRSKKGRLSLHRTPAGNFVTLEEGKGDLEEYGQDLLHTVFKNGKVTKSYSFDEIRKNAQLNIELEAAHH
smiles,measurement,value
"O=C(NCc1ccncc1)Nc1ccn2nc(-c3ccccc3)nc2c1 [US11918568, Example 15]",pEC50,6.64
